Values of other authors, collected in patent publication US20160045463A1, “USE OF METALLOPROTEASE INHIBITORS IN THE TREATMENT OF POLYCYSTIC LIVER DISEASES” (UNIVERSIDAD DE SALAMANCA, priority 2012, published 2016).

Tests used:
PCK rats = details: cited from earlier work
polycystic livers = details: ADPKD patients subjected to kidney transplant with polycystic livers; cited from earlier work

Compound	liver cystogenesis (PCK rats)	volume of the liver (polycystic livers)
C[C@@H](O)[C@@H]1NC(=O)[C@H](CCCCN)NC(=O)[C@@H](Cc2c[nH]c3ccccc23)NC(=O)[C@H](Cc2ccccc2)NC(=O)[C@@H](NC(=O)[C@H](N)Cc2ccccc2)CSSC[C@@H](C(=O)N[C@H](CO)[C@@H](C)O)NC1=O [octreotide]	inhibited	–
C=CC[C@@H]1/C=C(\C)C[C@H](C)C[C@H](OC)[C@H]2O[C@@](O)(C(=O)C(=O)N3CCCC[C@H]3C(=O)O[C@H](/C(C)=C/[C@@H]3CC[C@@H](O)[C@H](OC)C3)[C@H](C)[C@@H](O)CC1=O)[C@H](C)C[C@@H]2OC [tacrolimus]	–	increased the volume of the liver
